Test results reported in patent publication US6924297B2, “Naphathalene derivatives which bind to the EP4 receptor” (SmithKline Beecham Corporation, priority 2000, dated 2005).

Target: T1, human EP4 receptor (Homo sapiens, UniProt P35408)
T1 construct: expressed in transfected cells; host or cells: Chinese Hamster Ovary (CHO) cells infected with recombinant Semliki Forest Virus (SFV-1) particles; membranes prepared from these cells
Experiment: Human EP4 Scintillation Proximity Assay (radioligand binding)
Details: membranes of CHO cells expressing human EP4 receptor; [3H]-prostaglandin E2 radioligand; pKi from IC50 by Cheng-Prusoff; read-out: pKI at EP4 receptors (converted)
Description: Quantification of radioligand binding by scintillation proximity assay (SPA) is a long-established principle. Briefly, the affinity of compounds for a receptor is assessed by the specific competition between known quantities of radiolabelled ligand and compound for that receptor. Increasing concentrations of compound reduce the amount of radiolabel that binds to the receptor. This gives rise to a diminishing scintillation signal from SPA beads coated with membranes that bear the receptor. The signal may be detected with a suitable scintillation counter and the data generated may be analysed with suitable curve-fitting software.
The human EP4 SPA assay (hereafter referred to as ‘the assay’) utilises membranes prepared from Chinese Hamster Ovary (CHO cells) infected with Semliki Forest Virus (SFV). Genetically engineered SFV-1 viral particles containing the genetic sequence of the human EP4 receptor were used to infect CHO cells resulting in expression of the receptor protein in cellular membranes. Cells washed free of media are homogenised in a pH-buffered medium containing peptidase inhibitors. A suitable buffer is of the following composition: 50 mM HEPES, 1 mM EDTA, 25 μg/ml bacitracin, 100 μM leupeptin, 1 mM PMSF, 2 μM Pepstatin A, pH adjusted to 7.4 with KOH. Following removal of cell debris by a low-speed centrifugation, a pellet of membranes is prepared by a high-speed (48000 g) centrifugation of the resulting supernatant. Membrane suspensions such as that described may be stored at −80° C. until used.
For assay, membranes expressing human EP4 receptors are diluted in a pH-buffered medium and mixed with SPA beads coated with a suitable substance to facilitate the adhesion of membranes to the beads. The concentrations of membrane protein and SPA beads chosen should result in SPA binding signal of at least 300 corrected counts per minute (CCPM) when tritiated radioligand at a concentration close to its Kd (affinity value) is combined with the mixture. Non-specific binding (nsb) may be determined by competition between the radiolabelled ligand and a saturating concentration of unlabelled ligand. In order to quantify the affinity of EP4 receptor ligands, compounds are diluted in a stepwise manner across the wells of a 96-well plate. Radioligand, compound, and unlabelled ligand are then added to a 96-well plate suitable for the measurement of SPA binding signals prior to the addition of bead/membrane mixture to initiate the binding reaction. Equilibrium may be achieved by incubation at room temperature for 120 minutes prior to scintillation counting. The data so generated may be analysed by means of a computerised curve-fitting routine in order to quantify the concentration of compound that displaces 50% of the specific radioligand binding (IC50). The affinity (pKi) of the compound may be calculated from the IC50 by application of the Cheng-Prusoff correction. Suitable reagents and protocols are: reaction buffer containing 50 mM HEPES, 10 mM MgCl2, pH adjusted to 7.4 with KOH; SPA beads coated with wheatgerm agglutinin; 1.25 nM [^3H]-prostaglandin E2 as radioligand; 10 μM prostaglandin E2 as unlabelled ligand; a three-fold dilution series of compound starting at 10 μM and ending at 0.3 nM is adequate.

T1 sequence (P35408 whole entry): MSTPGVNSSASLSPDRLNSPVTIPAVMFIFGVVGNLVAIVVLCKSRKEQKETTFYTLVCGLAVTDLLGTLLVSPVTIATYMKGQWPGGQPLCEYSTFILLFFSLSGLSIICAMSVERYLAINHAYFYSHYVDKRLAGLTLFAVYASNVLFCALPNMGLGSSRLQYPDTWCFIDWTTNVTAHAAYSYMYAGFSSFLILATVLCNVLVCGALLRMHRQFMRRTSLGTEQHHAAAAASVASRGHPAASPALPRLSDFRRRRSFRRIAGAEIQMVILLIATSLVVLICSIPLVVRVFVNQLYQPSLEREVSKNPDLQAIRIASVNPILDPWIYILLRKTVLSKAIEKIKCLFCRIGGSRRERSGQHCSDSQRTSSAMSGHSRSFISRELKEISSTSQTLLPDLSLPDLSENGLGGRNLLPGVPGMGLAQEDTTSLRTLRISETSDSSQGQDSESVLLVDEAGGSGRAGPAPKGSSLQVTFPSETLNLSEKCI

SMILES | Ki
CCOc1c2c(c(OCC)c3ccccc13)C(=O)N(c1ccc(CS(=O)(=O)NC(=O)Cc3ccccc3)cc1)C2=O [Example 1, 1-[4-(4,9-diethoxy-1,3-dioxo-1,3-dihydro-2H-benzo[f]isoindol-2-yl)phenyl]-N-(phenylacetyl)methanesulfonamide] | ≤ 0.1 µM
CCOc1c2c(c(OCC)c3ccccc13)C(=O)N(c1ccc(CS(=O)(=O)NC(=O)Cc3ccc(C)cc3)cc1)C2 [Example 20] | ≤ 0.1 µM
CCOc1c2c(c(OCC)c3ccccc13)C(=O)N(c1ccc(CS(=O)(=O)NC(=O)Cc3cccc(F)c3)cc1)C2 [Example 25] | ≤ 0.1 µM
CCOc1c2c(c(OCC)c3ccccc13)C(=O)N(c1ccc(CS(=O)(=O)NC(=O)Cc3cccc(C)c3)cc1)C2 [Example 26] | ≤ 0.1 µM
CCOc1c2c(c(OCC)c3ccccc13)C(=O)N(c1ccc(CS(=O)(=O)NC(=O)Cc3ccc(C(C)C)cc3)cc1)C2 [Example 27] | ≤ 0.1 µM
CCOc1c2c(c(OCC)c3ccccc13)C(=O)N(c1ccc(CS(=O)(=O)NC(=O)Cc3ccc(CC)cc3)cc1)C2 [Example 28] | ≤ 0.1 µM
CCOc1c2c(c(OCC)c3ccccc13)C(=O)N(c1ccc(CS(=O)(=O)NC(=O)Cc3ccc(-c4ccccc4)cc3)cc1)C2 [Example 30] | ≤ 0.1 µM
CCOc1c2c(c(OCC)c3ccccc13)C(=O)N(c1ccc(CS(=O)(=O)NC(=O)Cc3ccccc3F)cc1)C2 [Example 32] | ≤ 0.1 µM
CCOc1c2c(c(OCC)c3ccccc13)C(=O)N(c1ccc(CS(=O)(=O)NC(=O)Cc3ccc(OC)c(OC)c3)cc1)C2 [Example 38, 1-[4-(4,9-diethoxy-1-oxo-1,3-dihydro-2H-benzo[f]isoindol-2-yl)phenyl]-N-[(3,4-dimethoxyphenyl)acetyl]methanesulfonamide] | ≤ 0.1 µM
CCOc1c2c(c(OCC)c3ccccc13)C(=O)N(c1ccc(CS(=O)(=O)NC(=O)C(C)c3ccc(CC(C)C)cc3)cc1)C2 (centres unmarked) [Example 40] | ≤ 0.1 µM
CCOc1c2c(c(OCC)c3ccccc13)C(=O)N(c1ccc(CS(=O)(=O)NC(=O)Cc3cccc(OCc4ccccc4)c3)cc1)C2 [Example 42] | ≤ 0.1 µM
CCOc1c2c(c(OCC)c3ccccc13)C(=O)N(c1ccc(CS(=O)(=O)NC(=O)Cc3ccccc3CC(=O)OC)cc1)C2 [Example 47] | ≤ 0.1 µM
CCOc1c2c(c(OCC)c3ccccc13)C(=O)N(c1ccc(CS(=O)(=O)NC(=O)Cc3ccsc3)cc1)C2 [Example 51] | ≤ 0.1 µM
CCOc1c2c(c(OCC)c3ccccc13)C(=O)N(c1ccc(CS(=O)(=O)NC(=O)Cc3ccc(F)cc3)cc1)C2=O [Example 62] | ≤ 0.1 µM
CCOc1c2c(c(OCC)c3ccccc13)C(=O)N(c1ccc(CS(=O)(=O)NC(=O)Cc3cccc(OC)c3)cc1)C2=O [Example 63] | ≤ 0.1 µM
CCOc1c2c(c(OCC)c3ccccc13)C(=O)N(c1ccc(CS(=O)(=O)NC(=O)Cc3cccc(F)c3)cc1)C2=O [Example 65] | ≤ 0.1 µM
CCOc1c2c(c(OCC)c3ccccc13)C(=O)N(c1ccc(CS(=O)(=O)NC(=O)Cc3ccc(OC)c(OC)c3)cc1)C2=O [Example 66, 1-[4-(4,9-diethoxy-1,3-dioxo-1,3-dihydro-2H-benzo[f]isoindol-2-yl)phenyl]-N-[(3,4-dimethoxyphenyl)acetyl]methanesulfonamide] | ≤ 0.1 µM
CCOc1c2c(c(OCC)c3ccccc13)C(=O)N(c1ccc(CS(=O)(=O)NC(=O)C(C)c3ccccc3)cc1)C2=O (centres unmarked) [Example 68] | ≤ 0.1 µM
CCOc1c2c(c(OCC)c3ccccc13)C(=O)N(c1ccc(CS(=O)(=O)NC(=O)Cc3c(C)cccc3C)cc1)C2=O [Example 72] | ≤ 0.1 µM
CCOc1c2c(c(OCC)c3ccccc13)C(=O)N(c1ccc(CS(=O)(=O)NC(=O)Cc3ccc(C)c(F)c3)cc1)C2=O [Example 74] | ≤ 0.1 µM

More lines, now with the values ahead:

Ki | SMILES
≤ 0.1 µM | CCOc1c2c(c(OCC)c3ccccc13)C(=O)N(c1ccc(CS(=O)(=O)NC(=O)Cc3ccc(OC)cc3)cc1)C2=O [Example 2]
≤ 0.1 µM | CCOc1c2c(c(OCC)c3ccccc13)C(=O)N(c1ccc(CS(=O)(=O)NC(=O)Cc3ccccc3)cc1)C2 [Example 18, 1-[4-(4,9-diethoxy-1-oxo-1,3-dihydro-2H-benzo[f]isoindol-2-yl)phenyl]-N-(phenylacetyl)methanesulfonamide]
≤ 0.1 µM | CCOc1c2c(c(OCC)c3ccccc13)C(=O)N(c1ccc(CS(=O)(=O)NC(=O)Cc3ccccc3C)cc1)C2 [Example 21]
≤ 0.1 µM | CCOc1c2c(c(OCC)c3ccccc13)C(=O)N(c1ccc(CS(=O)(=O)NC(=O)C(C)(C)c3ccccc3)cc1)C2 [Example 22]
≤ 0.1 µM | CCOc1c2c(c(OCC)c3ccccc13)C(=O)N(c1ccc(CS(=O)(=O)NC(=O)Cc3ccc(CC(C)C)cc3)cc1)C2 [Example 23]
≤ 0.1 µM | CCOc1c2c(c(OCC)c3ccccc13)C(=O)N(c1ccc(CS(=O)(=O)NC(=O)Cc3ccccc3Cl)cc1)C2 [Example 29]
≤ 0.1 µM | CCOc1c2c(c(OCC)c3ccccc13)C(=O)N(c1ccc(CS(=O)(=O)NC(=O)Cc3ccccc3OC)cc1)C2 [Example 31, 1-[4-(4,9-diethoxy-1-oxo-1,3-dihydro-2H-benzo[f]isoindol-2-yl)phenyl]-N-[(2-methoxyphenyl)acetyl]methanesulfonamide]
≤ 0.1 µM | CCOc1c2c(c(OCC)c3ccccc13)C(=O)N(c1ccc(CS(=O)(=O)NC(=O)Cc3cccc(OC)c3OC)cc1)C2 [Example 34, 1-[4-(4,9-diethoxy-1-oxo-1,3-dihydro-2H-benzo[f]isoindol-2-yl)phenyl]-N-[(2,3-dimethoxyphenyl)acetyl]methanesulfonamide]
≤ 0.1 µM | CCOc1c2c(c(OCC)c3ccccc13)C(=O)N(c1ccc(CS(=O)(=O)NC(=O)Cc3cc(OC)ccc3OC)cc1)C2 [Example 36]
≤ 0.1 µM | CCOc1c2c(c(OCC)c3ccccc13)C(=O)N(c1ccc(CS(=O)(=O)NC(=O)Cc3cc(C)ccc3C)cc1)C2 [Example 39]
≤ 0.1 µM | CCOc1c2c(c(OCC)c3ccccc13)C(=O)N(c1ccc(CS(=O)(=O)NC(=O)Cc3cccc(OC)c3)cc1)C2 [Example 43, 1-[4-(4,9-diethoxy-1-oxo-1,3-dihydro-2H-benzo[f]isoindol-2-yl)phenyl]-N-[(3-methoxyphenyl)acetyl]methanesulfonamide]
≤ 0.1 µM | CCOc1c2c(c(OCC)c3ccccc13)C(=O)N(c1ccc(CS(=O)(=O)NC(=O)Cc3ccc4ccccc4c3)cc1)C2 [Example 48]
≤ 0.1 µM | CCOc1c2c(c(OCC)c3ccccc13)C(=O)N(c1ccc(CS(=O)(=O)NC(=O)C3(c4ccccc4)CC3)cc1)C2 [Example 50]
≤ 0.1 µM | CCOc1c2c(c(OCC)c3ccccc13)C(=O)N(c1ccc(CS(=O)(=O)NC(=O)Cc3scnc3C)cc1)C2 [Example 60]
≤ 0.1 µM | CCOc1c2c(c(OCC)c3ccccc13)C(=O)N(c1ccc(CS(=O)(=O)NC(=O)Cc3ccccc3C)cc1)C2=O [Example 61]
≤ 0.1 µM | CCOc1c2c(c(OCC)c3ccccc13)C(=O)N(c1ccc(CS(=O)(=O)NC(=O)C(CC)c3ccccc3)cc1)C2=O (centres unmarked) [Example 64]
≤ 0.1 µM | CCOc1c2c(c(OCC)c3ccccc13)C(=O)N(c1ccc(CS(=O)(=O)NC(=O)Cc3ccc(C)cc3)cc1)C2=O [Example 67, 1-[4-(4,9-diethoxy-1,3-dioxo-1,3-dihydro-2H-benzo[f]isoindol-2-yl)phenyl]-N-[(4-methylphenyl)acetyl]methanesulfonamide]
≤ 0.1 µM | CCOc1c2c(c(OCC)c3ccccc13)C(=O)N(c1ccc(CS(=O)(=O)NC(=O)Cc3cc(F)ccc3F)cc1)C2=O [Example 69]
≤ 0.1 µM | CCOc1c2c(c(OCC)c3ccccc13)C(=O)N(c1ccc(CS(=O)(=O)NC(=O)Cc3ccc(Cl)cc3)cc1)C2=O [Example 70]
≤ 0.1 µM | CCOc1c2c(c(OCC)c3ccccc13)C(=O)N(c1ccc(CS(=O)(=O)NC(=O)Cc3ccccc3OC)cc1)C2=O [Example 71, 1-[4-(4,9-diethoxy-1,3-dioxo-1,3-dihydro-2H-benzo[f]isoindol-2-yl)phenyl]-N-[(2-methoxyphenyl)acetyl]methanesulfonamide]
≤ 0.1 µM | CCOc1c2c(c(OCC)c3ccccc13)C(=O)N(c1ccc(CS(=O)(=O)NC(=O)C(C)(C)c3cccc(C)c3)cc1)C2=O [Example 73]
